Measurements taken from patent US4892871A, “Azido-substituted octopamine agonists and the use thereof to control invertebrate pests” (The General Hospital Corporation, priority 1988, dated 1990).
Read-outs that look alike come from different tables or passages of the source. Each block holds one compound with its values, some of them ahead of it.

What was measured:
[1] = test system: Light Organ Adenylate Cyclase; assay: Antagonist inhibition of agonist-stimulated light organ adenylate cyclase; type: biochemical, firefly; conditions: for inhibition of compound IV stimulation of adenylate cyclase (in words): stimulation by compound IV; for Ki: read-out: Calculated Ki
adenylate cyclase = conditions: cited from earlier work
octopamine receptor [2] = assay: In vitro octopamine agonist activity in Manduca; type: biochemical
Source text: (§1) However, use of formamidines as pest controlling agents gives rise to certain problems, including the fact that the aniline breakdown products are carcinogenic. Moreover, a further problem is that the range of activity of these compounds is limited to a relatively few insect species. Matsumura, F., et al.. Environ. Health Perspect. 14: 71-82 (1976). […] Consistent with this in vitro activity, the formamidines are toxic in Manduca but not in the cockroach.

octopamine receptor [3] = assay: In vitro octopamine agonist activity in the cockroach; type: biochemical
Source text: as §1

[4] = test system: octopamine receptor protein(s); assay: SDS-polyacrylamide gel autoradiogram of light organ membrane proteins photolabeled with VIII; type: binding, firefly
Manduca larvae = assay: Antifeeding activity, Manduca larvae on sprayed tomato leaves; type: in vivo; conditions: percentage of leaf area remaining after 72 hours, dim light
[5] = test system: intact firefly light organ; assay: Light emission after injection into isolated firefly tails; type: in vivo
Procedure: In the second verification procedure, a bioassay was conducted which measured the effect of tritiated VIII on eliciting light emission when injected into isolated firefly tails.

octopamine receptors [6] = assay: Irreversible activation of adenylate cyclase after photolysis of firefly light organ membranes; type: biochemical; conditions: photolyzed, washed
Source text: When exposed to ultraviolet light in these wavelengths, the N3 azido group on the para-position is photolyzed to yield free N2 and a […] covalently with a number of protein sites, including areas with double bonds, amino groups and carboxylic acids. If compound IV is occupying an octopamine receptor at the time of photolysis, then the ligand will bind to a site on or near the receptor protein. […] To determine this, a series of photolysis experiments were performed in which firefly light organ membranes were preincubated with or without compound IV and then photolyzed. Next, the membranes were extensively washed to remove all free ligand and any ligand that was not covalently bound. Following this, adenylate cyclase activity was assayed. […] Presumably, the excess octopamine displaced compound IV so that, when the membranes were later photolyzed, octopamine (and not compound IV) was occupying the receptor. Subsequently, during washing, the octopamine was removed so that the receptor returned to its unstimulated state.

octopamine receptors [7] = assay: Irreversible (UV) binding of compound VIII to firefly light organ membranes and displacement; conditions: for displacement of irreversible VIII binding (in words): other experiments, nonoctopaminergic compounds
Procedure: In these experiments, membranes were preincubated with the probe for under various conditions and then the mixture was photolyzed in quartz microcuvettes using a UV-C germicidal lamp. […] To determine whether the binding was specific, various displacing agents were added during the preincubation with tritiated IV (VIII), and the mixture then photolyzed.

octopamine receptor [8] = assay: Reversible binding of compound VIII to light organ membranes (filtration); design: species or system firefly
Source text: The low affinity of octopamine for its receptor (Ka =30 micromolar) results in a half-time of dissociation of considerably less than 0.1 second. This precludes the use of labeled octopamine as a receptor ligand since the time required for the separation of free from bound ligand during a filtration assay is several seconds. […] In other words, following washing, enough ligand will still be on the receptor to allow estimation of the receptor's binding constant for compound IV. (Because there will still be significant loss of label during filtration, one cannot use this type of assay to estimate total receptor number).

octopamine receptors [9] = assay: Autoradiography of intact isolated firefly light organs labeled with VIII
Procedure: Because compound VIII binds irreversibly, it should have potential as an anatomic probe to […] localize octopamine receptors at the light microscopic level. To determine if this is feasible, some preliminary studies were conducted using intact isolated firefly light organs. The lanterns were first preincubated with VIII in dim light and then exposed either to no light or to intense UV. Following this step, the lanterns were extensively washed, then slide mounted, dehydrated, and exposed to tritium-sensitive X-ray film. […] In the absence of UV light, there was no labeling. Localization of octopamine receptors, particularly in the nervous system, should aid in an understanding of how octopamine exerts its behavioral effects in insects.

[10] = test system: octopamine-sensitive adenylate cyclase; assay: Activation of adenylate cyclase in firefly light organ membrane (broken cell) preparations; type: biochemical, Photinus pyralis; conditions: for Ka (concentration necessary for half-maximal activation of cyclase activity): firefly light organ membranes, reversible conditions
Procedure: The question of whether a given azido-substituted compound within the scope of the invention is an octopamine agonist can be readily answered by measuring adenylate cyclase activity of the octopamine-sensitive adenylate cyclase present in broken cell preparations of the firefly light organ. […] Specimens of Photinus pyralis are prepared by opening their tail sections, cleaning them, removing the light organs, and homogenizing the cyclase-containing fraction. Adenylate cyclase activity is measured in appropriate buffer-containing ATP, cofactors, and the compound to be tested. Normally, the solution mixture contains a phosphodiesterase inhibitor such as theophylline, and the assay is designed to provide linear measurements with respect to time and enzyme concentration. If necessary, the compounds to be tested are initially solubilized and appropriate solvent controls are run in parallel. The enzyme reaction is initiated by addition of ATP, stopped by heating, and centrifuged. Cyclic AMP can be measured by any test which indicates the presence thereof, preferably by the protein binding assay of Brown et al. (Advances in Cyclic Nucleotide Research 2:25-40 (1972)). The determination of the constant Ka, which is the concentration of the azido-substituted agonist necessary for half-maximal activation of cyclase activity, is carried out by measuring cyclase activity in the preparation, and plotting the activity (above control activity) versus the semilogarithm of the particular agonist concentration. This is done for a series of increasing concentrations until maximal activity (Vmax) is reached. Ka^(Azido) is then calculated from the graph as the agonist concentration required for one-half of Vmax. Ka^(Azido) is compared with the constant (Ka^oct) determined in an analogous way using ±p-octopamine as the agonist. The ratio Ka^oct /ka^(Azido) is then an indication of whether a particular azido-substituted agonist (Azido) is more (ratio greater than 1) or less (ratio smaller than 1) active than (±)-p-octopamine (oct). […]

inhibition of compound IV stimulation of adenylate cyclase (in words) [1]: inhibited
Compound: CN1CCC(=C2c3ccccc3C=Cc3ccccc32)CC1 [Cyproheptadine, cyproheptadine]

Compound: CNC=Nc1ccc(Cl)cc1C [DCDM, N-demethylchlordimeform]
agonist character in adenylate cyclase stimulation (adenylate cyclase): partial agonist | potency relative to octopamine in adenylate cyclase stimulation (adenylate cyclase): about six

agonist character (octopamine receptor [2]): full agonist | potency relative to octopamine (octopamine receptor [2]): 20 fold | agonist character (octopamine receptor [3]): very weak and partial agonist
Compound: Cc1cc(Cl)ccc1N=CN [DDCDM, didemethylchlordimeform]

Compound: CN1CCN2c3ccccc3Cc3ccccc3C2C1 (centres unmarked) [Mianserin, mianserin]
inhibition of compound IV stimulation of adenylate cyclase (in words) [1]: inhibited | effect on VIII labeling of the protein peak at MW 74,000 ([4]; excess antagonist present during photolysis): completely blocked

Ki ([1]; inhibiting stimulation by DCDM (a formamidine)): 18 µM | Ki ([1]; inhibiting stimulation by compound IV): 20 µM | Ki ([1]; inhibiting stimulation by octopamine (OCT)): 46 µM | inhibition of compound IV stimulation of adenylate cyclase (in words) [1]: inhibited
Compound: Cc1ccc(N(CC2=NCCN2)c2cccc(O)c2)cc1 [Phentolamine, phentolamine]

inhibition of compound IV stimulation of adenylate cyclase (in words) [1]: less potent
Compound: CC(C)NCC(O)COc1cccc2ccccc12 (centres unmarked) [Propranolol, propranolol]

increase in adenylate cyclase activity after prior photolysis and washing (octopamine receptors [6]; membranes preincubated with compound): 3 fold
Compound: CCc1cc(N=[N+]=[N-])cc(CC)c1N=C1NCCN1 [compound IV, (4-azido-2,6-diethylphenyl)imino-2-imidazoline]
potency relative to octopamine in inhibiting feeding (Manduca larvae): about 10 fold | potency relative to octopamine in stimulating light emission ([5]; injected into isolated firefly tails): about 15 fold

increase in amount of label permanently bound on exposure to UV light (octopamine receptors [7]; photolyzed vs no UV): 14 fold | concentration at which specific binding saturates (octopamine receptor [8]; specific binding = absence minus presence of 1000-fold excess mianserin): about 2 micromolar | Kd (octopamine receptor [8]; specific binding, light organ membranes, read-out: concentration at which 50% binding occurs): ~0.8 µM | labeling of the lantern (octopamine receptors [9]; absence of UV light): no labeling | labeling of the lantern (octopamine receptors [9]; exposed to intense UV): marked labeling | proteins labeled on gel ([4]; absence of UV radiation (lane C)): no proteins were labeled | proteins labeled on gel ([4]; photolyzed with UV (lane A)): Four major labeled peaks
Compound: [3H]c1c(CC)c(N=C2NCCN2)c(CC)c([3H])c1N=[N+]=[N-] [compound VIII, 2-(4-azido-2,6-diethyl-3,5-ditritiophenyl)imino-2-imidazoline]
light response compared with genuine unlabeled compound ([5]; injection of 0.5 nmoles into isolated firefly tails): identical | Ka (concentration necessary for half-maximal activation of cyclase activity) [10]: about 0.5 micromolar | adenylate cyclase activity profile compared with unlabeled IV ([10]; light organ membranes): virtually identical

displacement of irreversible VIII binding (in words) (octopamine receptors [7]): not displaced
Compound: NCCc1ccc(O)c(O)c1 [dopamine]

displacement of irreversible VIII binding (in words) (octopamine receptors [7]): not displaced
Compound: NCCc1c[nH]cn1 [histamine]

displacement of irreversible VIII binding (in words) (octopamine receptors [7]): not displaced
Compound: NC[C@H](O)c1ccc(O)c(O)c1 [norepinephrine]

Compound: NCC(O)c1ccc(O)cc1 (centres unmarked) [octopamine]
Ka (concentration necessary for half-maximal activation of cyclase activity) [10]: 30 µM | irreversible activation after preincubation with compound alone (octopamine receptors [6]): failed to cause any irreversible activation

displacement of irreversible VIII binding (in words) (octopamine receptors [7]): not displaced
Compound: NCCc1c[nH]c2ccc(O)cc12 [serotonin]
